In patent EP1336602A1, “Nitrate prodrugs able to release nitric oxide in a controlled and selective way and their use for prevention and treatment of inflammatory, ischemic and proliferative diseases” (Scaramuzzino, Giovanni, priority 2002, dated 2003):

How the values were obtained:
[1] = male, Wistar, in vivo, po, 1.09 mg/kg
[2] = tested on: S-nitrosohemoglobin (SNO-Hb); test: S-nitrosohemoglobin (SNO-Hb) levels in rat blood, photolysis-chemiluminescence; format: in vivo, Sprague-Dawely rats; conditions: 100 mg/Kg i.p., versus endogenous levels
Protocol: A highly sensitive photolysis-chemiluminescence methodology was used. Nitric oxide, released from Hb-SNO through photolysis, was detected in a chemiluminescence spectrometer by reaction with ozone (McMahon, T. J., and Stamler, J. S. (1999) Methods Enzymol. 301, 99-114).
Blood was obtained from the left ventricle (arterial) and jugular vein (venous) of anesthetized Sprague-Dawely rats: 12 were controls and 12 were treated with 100 mg/Kg of N-[4-(5-p-tolyl-3-trifluoromethyl-1H-pyrazol-1-yl)phenylsulfonyl]-p-nitroxymethylbenzamide (Ela). Red blood cells were isolated by centrifugation at 800 g, washed three times in phosphate buffered saline at 4 °C, lysed by the addition of 4-fold excess volume of deionized water containing 0.5 mM EDTA and desalted rapidly according to the method of Penefsky at 4 °C.
In 24 rats, Hb samples were divided in two aliquots which were then treated or not treated with 10-fold excess HgCl2 which can remove the signal of Hb(Fell)NO.

C[C@@H]1C[C@H]2[C@@H]3CCC4=CC(=O)C=C[C@]4(C)[C@@]3(F)[C@@H](O)C[C@]2(C)[C@@]1(O)C(=O)COC(=O)c1ccc(CO[N+](=O)[O-])cc1 [ECXCa, (11β,16α)-9-fluoro-11,17-dihydroxy-21-(p-nitroxymethylbenzoyloxy)-pregna-1,4-diene-3,20-dione]
Rat arterial blood pressure [1]: 100%

Cc1ccc(-c2cc(C(F)(F)F)nn2-c2ccc(S(=O)(=O)NC(=O)c3ccc(CO[N+](=O)[O-])cc3)cc2)cc1 [Ela, N-[4-(5-p-tolyl-3-trifluoromethyl-1H-pyrazol-1-yl)phenylsulfonyl]-p-nitroxymethylbenzamide]
S-nitrosohemoglobin (SNO-Hb) levels in rat arterial blood ([2]; arterial blood (left ventricle)): significantly increase | S-nitrosohemoglobin (SNO-Hb) levels in rat venous blood ([2]; venous blood (jugular vein)): significantly increase
